Measurements: PubChem BioAssay AID2423 (Broad Institute, 2010)
Records with an inconclusive call do not appear. Activity calls are given as the source filed them. No rule for the calls is given here.

system: C. albicans CaCi-8 + fluconazole, Alamar Blue growth, 48 h; experiment: resistant C. albicans growth inhibition with fluconazole, dose response, CaCi-8 strain, Alamar Blue fluorescence (AID 2423)

| SMILES | EC50 |
| --- | --- |
| Cc1ccc(C2(c3noc(CN4CCC(c5ccncc5)CC4)n3)CCCC2)cc1 | > 15 µM (inactive) |
| Cc1cc(SCC(=O)N/N=C/c2ccc(O)cc2O)c(C)cc1Br | 5.01 µM |
| Cc1ccc(NC(=O)NNC(=O)c2cc3ccccc3cc2O)c(C)c1 | > 15 µM (inactive) |
| O=C(N/N=C/c1sc(N2CCOCC2)nc1-c1ccccc1)c1cccc(S(=O)(=O)N2CCOCC2)c1 | 1.15 µM |
| Cc1cc(C)nc(NS(=O)(=O)c2ccc(NC(=O)COc3ccccc3)cc2)n1 | > 15 µM (inactive) |
| COc1cccc(-n2nnnc2S(C)(=O)=O)c1 | > 15 µM (inactive) |
| CC(CC(=O)Nc1ncc([N+](=O)[O-])s1)c1ccccc1 (stereo not given) | 0.322 µM |
| O=C1C(Nc2ccccc2)=C/C(=N/S(=O)(=O)c2cccs2)c2ccccc21 | 3.35 µM |
| CCn1nc(-c2ccccc2)nc2c(=O)n(C)c(=O)nc1-2 | 0.883 µM |
| CC1CCN(Cc2c(C(=O)N/N=C/c3cc(Br)ccc3O)nnn2-c2nonc2N)CC1 | 0.908 µM |
| O=C(Nc1nc(=O)c2ccccc2s1)c1ccccc1 | > 15 µM (inactive) |
| CCn1cc(C(=O)OCC(=O)Nc2cccc(Cl)c2Cl)c(=O)c2ccc(C)nc21 | > 15 µM (inactive) |
| Oc1ccc(N=Nc2ccc3c(c2)OCCO3)c2cccnc12 | 0.804 µM |
| CC(C)CCOc1cccc(OCC(=O)Nc2ccncc2)c1 | 3.22 µM |
| O=C(NCc1ccccc1)C1c2ccccc2Oc2ccccc21 | 6.03 µM |
| C/C(=N/NC(=O)c1cc(O)c(O)c(O)c1)c1ccc([N+](=O)[O-])cc1 | 4.81 µM |
| Cc1cccc(NC2=NC(=S)N(c3cccc(C(=O)O)c3)C23CCCCC3)c1 | 0.772 µM |
| Cc1nc(SCc2ccc(Cl)c(Cl)c2)ncc1C(=O)O | > 15 µM (inactive) |
| O=[N+]([O-])c1ccc(N2CCN(Cc3ccc([N+](=O)[O-])o3)CC2)cc1 | 1.65 µM |
| Cc1[nH]nc(-c2ccc(O)c(C)c2O)c1-c1cnn(-c2ccccc2)c1 | 3.96 µM |
| CCc1ccc(/C=C/C(=O)c2cc(Br)ccc(=O)c2O)cc1 | 0.833 µM |
| Cc1[nH]n(-c2cccc3ccccc23)c(=O)c1/C=N/NC(=O)c1cccc([N+](=O)[O-])c1 | 3.27 µM |
| CCOC(=O)c1c(-c2ccccc2)oc2ccc(OCC(O)CN(C)C)cc12 (stereo not given) | 1.29 µM |
| O=C(COc1ccccc1)Nc1nnc(-c2ccc3c(c2)CCCC3)o1 | 0.727 µM |
| COc1cc(NS(=O)(=O)c2ccc3ccccc3c2)c2ncccc2c1 | 2.56 µM |
| Clc1ccc(CONc2ncnc3nonc23)c(Cl)c1 | 0.328 µM |
| Cc1cc(=O)oc2cc(Oc3ccc([N+](=O)[O-])cc3[N+](=O)[O-])ccc12 | 0.652 µM |
| N#C/C(=C\c1ccc(N2CCOCC2)cc1)c1ccccc1 | 0.492 µM |

| SMILES | EC50 |
| --- | --- |
| COc1ccccc1-n1c(C)cc(SC)c(C(C)=O)c1=S | > 15 µM (inactive) |
| CCOc1ccc2nc(NC(=S)N(C)C)sc2c1 | 1.22 µM |
| Cc1ccc(-n2c(C)cc(/C([O-])=C(/C(=S)Nc3ccc(F)c(Cl)c3)[n+]3ccccc3)c2C)cc1 | > 16 µM (inactive) |
| CCN(CC)c1ccc(/C=C/c2cccc[n+]2C)c(OC)c1 | 1.23 µM |
| Oc1c(Br)cc(Br)cc1CNc1cccc2cccnc12 | > 15 µM (inactive) |
| CC(C)Cc1nc2oc3c(=O)[nH]cnc3c2c2c1CCCC2 | 0.297 µM |
| CNC1=C(N(C(C)=O)c2ccc(Br)cc2)C(=O)c2ccccc2C1=O | 0.19 µM |
| CCCNC(=O)C12CCC(C)(c3nc4cc(C)c(C)cc4nc31)C2(C)C (stereo not given) | > 15 µM (inactive) |
| CCN=c1scc(C)n1/N=C/c1ccc(O)c(O)c1O | > 15 µM (inactive) |
| CCOC(=O)c1nc(NNC(=O)c2ccc([N+](=O)[O-])cc2)sc1C | 0.981 µM |
| O=C(NC(=S)NNC(=O)c1cc2ccccc2cc1O)c1ccco1 | 1.03 µM |
| CN1CCN(C(=O)c2cnn(-c3ccccc3)c2NC(=O)c2ccccc2)CC1 | > 15 µM (inactive) |
| O=C(Nc1nnc(-c2ccc(F)cc2)o1)c1cccc([N+](=O)[O-])c1 | 1.01 µM |
| c1csc(CNc2ncnc3sccc23)c1 | 1.76 µM |
| C=CCOC(=O)c1sc(NC(=O)c2ccco2)nc1C | 0.348 µM |
| Cc1cc(C(C#N)c2ccccc2F)n2ncnc2n1 (stereo not given) | 0.895 µM |
| Cc1cccc(N2CCN(c3nc(C)cc(C)c3C#N)CC2C)c1 (stereo not given) | > 16 µM (inactive) |
| CCN(Cc1ccccc1)S(=O)(=O)c1ccc(C(=O)Nc2nnc(-c3ccccc3OC)o2)cc1 | < 0.12 µM |
| O=C(Cc1ccccc1)N/N=C/c1cc(Br)cc(Cl)c1O | > 15 µM (inactive) |
| O=C(N/N=C\C=C\c1ccc([N+](=O)[O-])o1)c1cccs1 | > 16 µM (inactive) |
| CCCCCCOC(=O)C[N+](C)(C)CCOC1CC2CCC1(C)C2(C)C (stereo not given) | 1.16 µM |
| CCc1ccc(CNC(=O)CCC(=O)N2Cc3cccc(OC)c3Oc3ncccc32)cc1 | > 16 µM (inactive) |
| CCn1c(NC(=O)c2cccs2)nc2ccccc21 | 1.28 µM |
| CCN(CC)S(=O)(=O)c1ccc(N/N=C/c2ccc(O)cc2O)nc1 | 0.644 µM |
| O=C(N/N=C/c1ccncc1)c1cc2ccccc2cc1O | > 15 µM (inactive) |
| COCCN1C(=O)C(O)=C(C(=O)c2ccco2)C1c1cccc(Oc2ccccc2)c1 (stereo not given) | 3.84 µM |
| N=C1/C(=C/c2cccn2-c2ccc([N+](=O)[O-])cc2)C(=O)N=C2SC=CN12 | > 16 µM (inactive) |
